# Where a name gives a salt, the structure may show the parent alone.
# Legend:
# [1] = Preliminary experiments on pharmacological activities; details: compared with methyl and ethyl salicyl fumarate
# From the text: 7. The applicants used the same fore-mentioned synthesis routes to perform esterification of salicylic acid and fumarate esters. They obtained propyl salicyl fumarate (compound structural formula shown as C), isopropyl salicyl fumarate (compound structural formula shown as D), and butyl salicyl fumarate (compound structural formula shown as E) respectively.
# glutathione (GSH) = assay: In vitro cell experiments, intracellular glutathione concentration; assay type: cell-based
# [2] = system: MPTP-induced dopaminergic neuron-damaged PD mouse models; assay: MPTP-induced dopaminergic neuron damage PD mouse model, dose response protection and safety; assay type: in vivo, mice; details: for lowest dosage for protective effect: dopamine neuron protection; for dosage where toxic effects began to appear: mouse, in vivo, ip
# Description: Using MSF and ESF to conduct therapeutic studies with widely accepted MPTP-induced dopaminergic neuron-damaged PD mouse models. […] For the experimental groups of MSF and ESF, 10 dose groups were used for each drug. 10 mice in each group. Both the experimental group and the control group used intraperitoneal administration. The control group was treated with DMF. Statistically significant protective effects of dopamine neurons were found, and the dose-effect relationship was observed.
# [3] = system: Nrf2 knockout mice with MPTP-induced dopaminergic neuronal damage; assay: MPTP experiments on transgenic mice with the Nrf2 gene knocked out; assay type: in vivo
# From the text: Inferring from the inclusion of salicyl in their molecule structure, this new target may be associated with anti-neuroinflammation.
# [4] = system: models of chronic MPTP-induced dopamine neuron damage in mice; assay: Chronic MPTP-induced dopamine neuron damage in mice; assay type: in vivo; details: 200 mg/kg/d, chronic MPTP model
# [5] = HPLC level of MSF and ESF in peripheral blood, liver and brain tissue after intraperitoneal injection; assay type: in vivo; details: after intraperitoneal injection in mice
# From the text: Unlike the positive control drug DMF which worked differently.
# glutathione = details: unlike DMF; cited from earlier work
# MS patients [6] = details: CONFIRM; cited from earlier work
# [7] = system: MPTP-induced mouse PD models; details: cited from earlier work
# MS patients [8] = details: DEFINE; cited from earlier work
# [9] = intraperitoneal administration, MPTP mice
compound,measurement,setting,value
CCCCOC(=O)/C=C/C(=O)Oc1ccccc1C(=O)O [butyl salicyl fumarate],pharmacological activities,[1],lower than those of methyl salicyl fumarate and ethyl salicyl fumarate
CC(C)OC(=O)/C=C/C(=O)Oc1ccccc1C(=O)O [isopropyl salicyl fumarate],pharmacological activities,[1],lower than those of methyl salicyl fumarate and ethyl salicyl fumarate
"COC(=O)/C=C/C(=O)OCc1ccccc1O [MSF, methyl salicyl fumarate]",effect on glutathione concentration in the cell,glutathione (GSH),no effect on the concentration of glutathione in the cell
same,protective effects of dopamine neurons compared to DMF,[2]; [9],more significant protective effects
same,lowest dosage for protective effect,[2]; [9],10 mg/kg/day
same,dosage where toxic effects began to appear,[2],> 500 mg/kg/day
same,dopaminergic neuron protective effect,[3],still show significant protective effects
same,dopamine neuron protection,[4],significant dopamine neuron protection
same,entry into the brain through the blood-brain barrier,[5],can enter the brain through the blood-brain barrier
same,molecular structure in the brain,[5],remains unchanged in the brain
"COC(=O)/C=C/C(=O)O [MMF, monomethyl fumarate]","glutathione consumption, inhibition of mitochondrial and glycolysis functions",glutathione,does not consume glutathione and inhibit mitochondrial and glycolysis functions
"CCOC(=O)/C=C/C(=O)OCc1ccccc1O [ESF, ethyl salicyl fumarate]",effect on glutathione concentration in the cell,glutathione (GSH),no effect on the concentration of glutathione in the cell
same,protective effects of dopamine neurons compared to DMF,[2]; [9],more significant protective effects
same,lowest dosage for protective effect,[2]; [9],10 mg/kg/day
same,dosage where toxic effects began to appear,[2],> 500 mg/kg/day
same,dopaminergic neuron protective effect,[3],still show significant protective effects
same,dopamine neuron protection,[4],significant dopamine neuron protection
same,entry into the brain through the blood-brain barrier,[5],can enter the brain through the blood-brain barrier
same,molecular structure in the brain,[5],remains unchanged in the brain
"COC(=O)/C=C/C(=O)OC [DMF, dimethyl fumarate, reference compound]",reduction in recurrence,MS patients [6],34%
same,effect on glutathione concentration in the cell,glutathione (GSH),had the effect of depleting glutathione
same,dosage where DMF showed toxic effect,[2]; [9],> 200 mg
same,lowest dosage for protective effect,[2]; [9],50 mg/kg/day
same,protective effects against the neural toxicity of MPTP,[7],exhibit protective effects against the neural toxicity of MPTP
same,reduction in occurrences of disability,MS patients [8],38%
same,reduction in occurrences of recurrence,MS patients [8],49%
same,dopaminergic neuron protective effect,[3],lost the dopaminergic neuron protective effect
CCCOC(=O)/C=C/C(=O)Oc1ccccc1C(=O)O [propyl salicyl fumarate],pharmacological activities,[1],lower than those of methyl salicyl fumarate and ethyl salicyl fumarate
